According to US10172957B2, “Acid-labile lipophilic prodrugs of cancer chemotherapeutic agents” (priority 2011, dated 2019):

What was measured:
Assay type in all cases: in vitro ADME
[1] = Stability in rat plasma at 37° C.
Protocol: (§1) The stability of the acid labile, lipophilic molecular conjugates to hydrolysis in plasma was evaluated to determine their potential to release the active cancer chemotherapeutic agents into systemic circulation and thereby cause general off target toxicity (“side effects”). The conjugates were incubated with plasma of mouse, rat and human origin.
(§2) HPLC grade Methanol from Fisher (Fair lawn, NJ, USA). Part No: A452-4 (074833). HPLC grade Water from Fisher (Fair lawn, NJ, USA). Part No: W5-4 (073352). Drug-free mouse, rat and human plasmas were purchased from Innovative Research Inc. (Southfield, Mich., USA). LIPOSYN® I.V. (30% soybean oil and egg yolk phospholipids, Abbott Laboratories) Fat Emulsion from Hospira, Inc. (Lake Forest, Ill.).
(§3) Each drug (ART 198, ART 273, ART 488 and ART 489) was prepared in triplicate in mouse, rat and human plasma individually at […] concentration and vortexed for 1 minute and placed in a water bath at 37° C. at a shake rate of 75 per minute. Samples were drawn at time points of 0, 15, 30, 45, 60, 75, 90, 105, 120, 135, 150, 165, 180, 210, 240, 300, 360 and 480 minutes.
(§4) Chromatographic separation of the compounds was performed on a Waters Acquity UPLC™ using a BEH C18 column (1.7 μm, 2.1×50 mm). The mobile phase consisted of Methanol: 0.1% Formic acid (80:20). The flow rate was 0.3 ml/min; the sample injection volume was 5 μL, resulting in a 3 minute run time.
(§5) The MS instrumentation consisted of a Waters Micromass Quattro Micro™ triple-quadrupole system (Manchester, UK). The MS system was controlled by a 4.0 version of MassLynx software. Ionization was performed in the positive electrospray ionization mode. MS/MS conditions were the following: capillary voltage 3.02 kV; cone voltage 50 v; extractor voltage 5 v; and RF lens voltage 0.5 v. The source and desolvation temperatures were 100° C. and 400° C. respectively, and the desolvation and cone gas flow were 400 and 30 L/hr, respectively.
(§6) The selected mass-to-charge (m/z) ratio transitions of the ART 198 used in the selected ion monitoring (SIM) were: for ART 198, 617 (M+K)^+, for ART 273, 589 (M+K)^+, for ART 488, 913 (M+Na)^+, and for ART 489, 957 (M+Na)^+. The dwell time was set at 200 msec. MS conditions were optimized using direct infusion of standard solutions prepared in methanol and delivered by a syringe pump at a flow rate of 20 μL/min.
(§7) Samples of 100 μL were collected at time points of 0, 15, 30, 45, 60, 75, 90, 105, 120, 135, 150, 165, 180, 210, 240, 300, 360 and 480 minutes respectively and the reaction was terminated with methanol. In a separate set of experiments the acid labile, lipophilic molecular conjugates were dissolved in a small amount of ethanol and diluted into a lipid emulsion (Liposyn®) and added to mouse and human plasma before incubation and the hydrolysis of the conjugates was similarly measured. Collected plasma samples of 100 μL containing drug were placed in separate Eppendorf micro centrifuge tubes for processing. Methanol (200 μL) was added to extract the drug using the protein precipitation technique. The micro tubes were then vortex mixed for 10 minutes and centrifuged for 15 minutes at a speed of 10,000 rpm (Eppendorf 5415C centrifuge). The supernatant was collected and filtered using a 0.45 μm filter (Waters 13 mm GHP 0.45 μm) before analysis.
(§8) The weighted linear least-squares (1/x) regression was used as the mathematical model. The coefficient (r) for the compounds ranged from 0.9925 to 0.9999. The calibration range was selected according to the concentrations anticipated in the samples to be determined.
(§9) Samples were collected at various times and the percent remaining of the acid labile, lipophilic molecular conjugate of the cancer chemotherapeutic agent was determined along with the percent of the chemotherapeutic agent released from the hydrolysis of the conjugate.

[2] = Stability in mouse plasma when added in a lipid emulsion (Liposyn); conditions: 37° C.
Protocol: as §2, §4, §5, §6, §7, §9

[3] = Stability in human plasma when added in a lipid emulsion (Liposyn); conditions: 37° C.
Protocol: as §2, §4, §5, §6, §7, §9

[4] = Stability in human plasma at 37° C.
Protocol: as §1, §2, §3, §4, §5, §6, §7, §8, §9

Structure (SMILES): CCCCCCCCCCCCCCCC1OCC(COC(=O)OC2=C(C)[C@@H]3C[C@H]4OC(=O)C(OC(=O)CC5(O)CCCCC5)[C@H]5[C@]6(C(=O)OC)OC[C@]45[C@H]([C@@H](O)[C@@H]6O)[C@@]3(C)CC2=O)O1 (some centres unmarked) [ART 489]
- percent remaining of initial drug ([1]; 0 min): 100%
- percent remaining of initial drug ([1]; 15 min): 93.2%
- percent remaining of initial drug ([1]; 30 min): 75.8%
- percent remaining of initial drug ([1]; 45 min): 74.3%
- percent remaining of initial drug ([1]; 60 min): 75.0%
- percent remaining of initial drug ([1]; 75 min): 74.4%
- percent remaining of initial drug ([1]; 90 min): 74.4%
- percent remaining of initial drug ([1]; 105 min): 73.7%
- percent remaining of initial drug ([1]; 120 min): 69.9%
- percent remaining of initial drug ([1]; 135 min): 68.5%
- percent remaining of initial drug ([1]; 150 min): 67.3%
- percent remaining of initial drug ([1]; 165 min): 63.0%
- percent remaining of initial drug ([1]; 180 min): 63.0%
- percent remaining of initial drug ([1]; 210 min): 62.7%
- percent remaining of initial drug ([1]; 240 min): 61.7%
- percent remaining of initial drug ([1]; 300 min): 55.4%
- percent remaining of initial drug ([1]; 360 min): 48.2%
- percent remaining of initial drug ([1]; 480 min): 34.3%
- percent remaining of initial drug ([2]; 0 min): 100%
- percent remaining of initial drug ([2]; 15 min): 98.0%
- percent remaining of initial drug ([2]; 30 min): 97.9%
- percent remaining of initial drug ([2]; 45 min): 97.4%
- percent remaining of initial drug ([2]; 60 min): 91.4%
- percent remaining of initial drug ([2]; 75 min): 90.3%
- percent remaining of initial drug ([2]; 90 min): 87.9%
- percent remaining of initial drug ([2]; 105 min): 80.7%
- percent remaining of initial drug ([2]; 120 min): 80.4%
- percent remaining of initial drug ([2]; 135 min): 79.9%
- percent remaining of initial drug ([2]; 150 min): 79.2%
- percent remaining of initial drug ([2]; 165 min): 78.7%
- percent remaining of initial drug ([2]; 180 min): 78.2%
- percent remaining of initial drug ([2]; 210 min): 75.6%
- percent remaining of initial drug ([2]; 240 min): 74.7%
- percent remaining of initial drug ([2]; 300 min): 73.7%
- percent remaining of initial drug ([2]; 360 min): 73.0%
- percent remaining of initial drug ([3]; 0 min): 100%
- percent remaining of initial drug ([3]; 15 min): 98.4%
- percent remaining of initial drug ([3]; 30 min): 93.9%
- percent remaining of initial drug ([3]; 45 min): 92.7%
- percent remaining of initial drug ([3]; 60 min): 88.2%
- percent remaining of initial drug ([3]; 75 min): 87.9%
- percent remaining of initial drug ([3]; 90 min): 87.5%
- percent remaining of initial drug ([3]; 105 min): 86.4%
- percent remaining of initial drug ([3]; 120 min): 86.4%
- percent remaining of initial drug ([3]; 135 min): 84.7%
- percent remaining of initial drug ([3]; 150 min): 84.6%
- percent remaining of initial drug ([3]; 165 min): 83.7%
- percent remaining of initial drug ([3]; 180 min): 82.9%
- percent remaining of initial drug ([3]; 210 min): 82.0%
- percent remaining of initial drug ([3]; 240 min): 81.4%
- percent remaining of initial drug ([3]; 300 min): 80.2%
- percent remaining of initial drug ([3]; 360 min): 78.2%
- percent remaining of initial drug ([3]; 480 min): 76.6%
- percent remaining of initial drug ([4]; 0 min): 100%
- percent remaining of initial drug ([4]; 15 min): 99.3%
- percent remaining of initial drug ([4]; 30 min): 98.8%
- percent remaining of initial drug ([4]; 45 min): 98.4%
- percent remaining of initial drug ([4]; 60 min): 97.4%
- percent remaining of initial drug ([4]; 75 min): 94.6%
- percent remaining of initial drug ([4]; 90 min): 93.7%
- percent remaining of initial drug ([4]; 105 min): 93.0%
- percent remaining of initial drug ([4]; 120 min): 91.9%
- percent remaining of initial drug ([4]; 135 min): 91.7%
- percent remaining of initial drug ([4]; 150 min): 90.9%
- percent remaining of initial drug ([4]; 165 min): 90.4%
- percent remaining of initial drug ([4]; 180 min): 90.1%
- percent remaining of initial drug ([4]; 210 min): 89.0%
- percent remaining of initial drug ([4]; 240 min): 86.7%
- percent remaining of initial drug ([4]; 300 min): 84.1%
- percent remaining of initial drug ([4]; 360 min): 78.7%
- percent remaining of initial drug ([4]; 480 min): 65.9%
